Experimental data taken from EP4772178A1, “ANTI-TUMOR USE OF ACT001 COMPOSITION” (Accendatech Co. Ltd., priority 2023, dated 2025).
Several values for one entry are separate records, joined by “and”; a condition that tells them apart may be missing. Equal entries are not always repeated.

Legend:
[1] = ACT001-CN-002 Phase II clinical trial, safety assessment (peripheral blood lymphopenia)
Protocol: GBM patients who relapsed after standard treatment were randomly assigned to three cohorts of an ACT001-CN-002 Phase II clinical trial: • Cohort A: ACT001 monotherapy (400 mg, BID); • Cohort B: ACT001 and TMZ (temozolomide) were administered in combination at doses of 400mg, BID (ACT001) and 200 mg/m^2/day (TMZ, administered on days one to five of each 28-day course of treatment), respectively; • Cohort C: CCNU monotherapy (lomustine, 100-130 mg/m^2/dose, once every six weeks, 4 doses at most) or TMZ monotherapy (the dosage level and the route of administration were the same as those for cohort B).
The trial endpoints were post-dose progression-free survival (iRANO criteria), one-year survival rate, and safety assessment: the number of times each safety event occurred (e.g., the incidence of peripheral blood lymphopenia). The exploratory endpoints included changes in the peripheral blood suppressive Treg lymphocyte ratio.

GBM = experiment: ACT001-CN-002 Phase II clinical trial, efficacy (best response, iRANO criteria); format: in vivo, patients; details: one line per patient; duration of stable disease
[2] = tested on: peripheral blood suppressive Treg lymphocytes; experiment: ACT001-CN-002 Phase II clinical trial, exploratory endpoint: peripheral blood Treg ratio; format: in vivo, patients; details: one line per patient; for Peripheral blood Treg ratio (before treatment): first figure of the cell; for Peripheral blood Treg ratio (after treatment): second figure of the cell

| Structure (SMILES) | Grade 3 or higher lymphopenia ([1]; one line per patient) | Best response time (months) (GBM) | Peripheral blood Treg ratio (before treatment) [2] | Peripheral blood Treg ratio (after treatment) [2] | Grade 3 or higher lymphopenia ([1]; human, in vivo) |
| --- | --- | --- | --- | --- | --- |
| O=NN(CCCl)C(=O)NC1CCCCC1 [CCNU, lomustine] | No (2×) and Yes | 6 months | 6.6 and 5.6 and 11.4 | 12.4 and 7.3 and 9.5 | – |
| Cn1nnc2c(C(N)=O)ncn2c1=O [TMZ, temozolomide] | – | 7 months and 4 months | 4.3 and 7.1 | 14.3 and 7.5 | – |
| CC1=C2CC[C@@](C)(O)[C@@H]2[C@H]2OC(=O)[C@@H](CN(C)C)[C@@H]2CC1 [ACT001] | – | 9 months and 4 months | 3.2 and 8.7 and 5.9 and 6.9 and 2.4 | 8.4 and 6.5 and 6.7 and 1.8 and 9.4 | No |
